Measured values taken from US20090137664A1, “SAURURUS CERNUUS COMPOUNDS THAT INHIBIT CELLULAR RESPONSES TO HYPOXIA” (priority 2003, published 2009).

Experiments:
[1] = tested on: HCT-15; test: NCI in vitro cell line screen (SRB), Colon Cancer HCT-15; type: cell-based
Method: (§1) For exemplary purposes, an embodiment of the present invention was tested for activity with respect to certain cancer cell lines. The following Tables show results from in vitro 60-cell line antitumor testing from the US National Cancer Institute Developmental Therapeutics Program (NCI-DTP) on compound 2. The testing was in connection with the NCI's In Vitro Cell Line Screening Project (IVCLSP). Detailed information regarding the experiments and their interpretation is available from the NCI.

[2] = tested on: U251; test: NCI in vitro cell line screen (SRB), CNS Cancer U251; type: cell-based
Method: as §1

[3] = tested on: secreted VEGF protein; test: induction of secreted VEGF protein by 1,10-phenanthroline in T47D cells (ELISA); type: cell-based, human; details: T47D, 1,10-phenanthroline 10 μM, 16 hr
Method: Cell plating and compound treatment is similar to those described earlier for hypoxic conditions. […] At the end of the incubation, the concentration of secreted VEGF protein in the conditioned media is determined by ELISA and the data normalized by the number of viable cells.

[4] = tested on: NCI/ADR-RES; test: NCI in vitro cell line screen (SRB), Breast Cancer NCI/ADR-RES; type: cell-based
Method: as §1
Antitumor agents with tumor-specific selectivity are highly desired, in order to reduce the incidence of non-selective cytotoxicity to patients. […] This is of special importance since this NCI/ADR-RES cell line is resistant to many currently used antitumor agents such as adriamycin, taxol, and others.

[5] = tested on: LOX IMVI; test: NCI in vitro cell line screen (SRB), Melanoma LOX IMVI; type: cell-based
Method: as §1

[6] = Homo sapiens, read-out: LC50 (the source's name)
[7] = NCI/ADR-RES, Log10 Concentration −4.0 Molar
[8] = NCI/ADR-RES, Log10 Concentration −5.0 Molar
[9] = NCI/ADR-RES, Log10 Concentration −6.0 Molar
[10] = NCI/ADR-RES, Log10 Concentration −7.0 Molar
[11] = NCI/ADR-RES, Log10 Concentration −8.0 Molar

COc1ccc([C@@H](O)[C@@H](C)Oc2ccc([C@H]3O[C@H](c4ccc(O[C@H](C)[C@H](O)c5ccc6c(c5)OCO6)c(OC)c4)[C@H](C)[C@H]3C)cc2OC)cc1OC [Compound 2, manassantin B]
TGI [1]: >1.00E−4 Molar | GI50 ([1]; Homo sapiens): 4.91 µM | CC50 [1, 6]: > 100 µM | Mean Optical Densities ([1]; Log10 Concentration −4.0 Molar): 0.319 | Percent Growth ([1]; Log10 Concentration −4.0 Molar): 26% | Mean Optical Densities ([1]; Log10 Concentration −5.0 Molar): 0.400 | Percent Growth ([1]; Log10 Concentration −5.0 Molar): 38% | Mean Optical Densities ([1]; Log10 Concentration −6.0 Molar): 0.660 | Percent Growth ([1]; Log10 Concentration −6.0 Molar): 77% | Mean Optical Densities ([1]; Log10 Concentration −7.0 Molar): 0.691 | Percent Growth ([1]; Log10 Concentration −7.0 Molar): 82% | Mean Optical Densities ([1]; Log10 Concentration −8.0 Molar): 0.683 | Percent Growth ([1]; Log10 Concentration −8.0 Molar): 80% | TGI [2]: 7.27E−5 Molar | GI50 ([2]; Homo sapiens, U-251): < 0.01 µM | CC50 ([2]; Homo sapiens, U-251, read-out: LC50 (the source's name)): > 100 µM | Mean Optical Densities ([2]; Log10 Concentration −4.0 Molar): 0.267 | Percent Growth ([2]; Log10 Concentration −4.0 Molar): −2% | Mean Optical Densities ([2]; Log10 Concentration −5.0 Molar): 0.335 | Percent Growth ([2]; Log10 Concentration −5.0 Molar): 15% | Mean Optical Densities ([2]; Log10 Concentration −6.0 Molar): 0.418 | Percent Growth ([2]; Log10 Concentration −6.0 Molar): 35% | Mean Optical Densities ([2]; Log10 Concentration −7.0 Molar): 0.444 | Percent Growth ([2]; Log10 Concentration −7.0 Molar): 41% | Mean Optical Densities ([2]; Log10 Concentration −8.0 Molar): 0.443 | Percent Growth ([2]; Log10 Concentration −8.0 Molar): 41% | effect on the induction of secreted VEGF protein by 1,10-phenanthroline [3]: does not effect | inhibition of the NCI/ADR-RES breast tumor cell line [4]: potently inhibits | GI50 ([4]; Homo sapiens, NCI/ADR-RES): 0.107 µM | CC50 ([4]; Homo sapiens, NCI/ADR-RES, read-out: LC50 (the source's name)): > 100 µM | TGI ([4]; NCI/ADR-RES): >1.00E−4 Molar | Mean Optical Densities [4, 7]: 0.982 | Percent Growth [4, 7]: 5% | Mean Optical Densities [4, 8]: 1.133 | Percent Growth [4, 8]: 20% | Mean Optical Densities [4, 9]: 1.389 | Percent Growth [4, 9]: 45% | Mean Optical Densities [4, 10]: 1.445 | Percent Growth [4, 10]: 50% | Mean Optical Densities [4, 11]: 1.518 | Percent Growth [4, 11]: 57% | TGI [5]: >1.00E−4 Molar | GI50 ([5]; Homo sapiens): 2.19 µM | CC50 [5, 6]: > 100 µM | Mean Optical Densities ([5]; Log10 Concentration −4.0 Molar): 0.353 | Percent Growth ([5]; Log10 Concentration −4.0 Molar): 12% | Mean Optical Densities ([5]; Log10 Concentration −5.0 Molar): 0.396 | Percent Growth ([5]; Log10 Concentration −5.0 Molar): 18% | Mean Optical Densities ([5]; Log10 Concentration −6.0 Molar): 0.703 | Percent Growth ([5]; Log10 Concentration −6.0 Molar): 66% | Mean Optical Densities ([5]; Log10 Concentration −7.0 Molar): 0.743 | Percent Growth ([5]; Log10 Concentration −7.0 Molar): 73% | Mean Optical Densities ([5]; Log10 Concentration −8.0 Molar): 0.778 | Percent Growth ([5]; Log10 Concentration −8.0 Molar): 78%
